The target of this experiment is Recombinant human HSD17B13 (Homo sapiens (Human), UniProt Q7Z5P4). Put plainly: HSD17B13 rapid-fire mass spectrometry assay (RF/MS assay). The following applies: inhibition of HSD17B13; LTB4 10 μM, NAD+ 0.5 mM, RT 3 h; IC50 ranges A-E. The class given is biochemical. An excerpt:
HSD17B13 rapid-fire mass spectrometry assay (RF/MS assay). Recombinant human HSD17B13 was expressed and purified from sf9 cells at Charles River Labs (Saffron Walden, UK). Leukotriene B4 (Catalog #71160-24-2) and 12-oxoleukotriene B4 (Catalog #20140) were purchased from Cayman Chemicals (Ann Arbor, Michigan.). NAD+ (Catalog #N8285), BSA (Catalog #A7030), DMSO (Catalog #D2650), and Tween-20 (Catalog #11332465001) were purchased from Sigma (St. Louis, MO). Formic acid (Catalog #28905) was from ThermoFisher Scientific and 384 deep well PP microplates (Catalog #784261) were from Greiner Bio-One. In a typical IC50 assay performed in a 384w PP microplate, test compounds (0-100 μM) were incubated with HSD17B13 (80 nM), LTB4 (10 μM), and NAD^+ (0.5 mM) in 10 μL assay buffer (20 mM Tris (pH 7.5), BSA (0.005%), and Tween-20 (0.01%)) at RT for 3 h. The assays were quenched by adding 20 μL of 0.15% aqueous formic acid and the plates were frozen at −80° C. RF/MS analysis was performed at PureHoney Technologies (Billerica, MA) on a RapidFire RF300 system (Agilent Technologies, Inc.) coupled to an API 4000 triple quadrupole mass spectrometer (Sciex) equipped with Agilent RapidFire cartridge type A (C4). The mobile phase was 0.09% formic acid and 0.01% trifluoracetic acid in water (Buffer A) and 0.09% formic acid and 0.01% trifluoracetic acid in 80% aqueous acetonitrile (Buffer B). The RapidFire method conditions were the following: 250 ms aspirate, 3000 ms load/desalt, 4000 ms elute, and 500 ms re-equilibrate. RF-MS/MS was performed in negative polarity (−4500 V), the source temperature was 650° C., and gas 1 and gas 2 settings for nitrogen were set to 50. The curtain gas and collision gas were also nitrogen and were set to 20 and 12, respectively. Leukotriene B4 (335.3) and 12-oxoLeukotriene B4 (333.3) SRM transitions were optimized with Discovery Quant software and extracted ion counts for these analytes were determined.
Data Analysis. HSD17B13 enzyme activity was measured as percent conversion of extracted ion counts and normalized to high and low controls to determine percent residual activity at various concentrations of test compounds. Data were fitted to normalized activity (variable slope) versus concentration fit in GraphPad Prism 7 to determine IC50. All experiments were run in duplicates.
By using above method, the inhibition of HSD17B13 was evaluated for the compounds of Formula (I). IC50 ranges are as follows: A=IC50<0.100 μM; B=0.100 μM<IC50<0.500 μM; C=0.500 μM<IC50<1 μM; D=1 μM<IC50<100 μM; E=IC50>100 μM

Data on 60 molecules can be found in patent US12384753B2, “17-beta-hydroxysteroid dehydrogenase type 13 inhibitors and methods of use thereof” (Enanta Pharmaceuticals, Inc., priority 2021, dated 2025).

pIC50: −log10 of the molar value.

What is called pIC50 is −log10 of the IC50, conventionally taken in molar units.

Chain of Recombinant human HSD17B13 (Q7Z5P4 20-300): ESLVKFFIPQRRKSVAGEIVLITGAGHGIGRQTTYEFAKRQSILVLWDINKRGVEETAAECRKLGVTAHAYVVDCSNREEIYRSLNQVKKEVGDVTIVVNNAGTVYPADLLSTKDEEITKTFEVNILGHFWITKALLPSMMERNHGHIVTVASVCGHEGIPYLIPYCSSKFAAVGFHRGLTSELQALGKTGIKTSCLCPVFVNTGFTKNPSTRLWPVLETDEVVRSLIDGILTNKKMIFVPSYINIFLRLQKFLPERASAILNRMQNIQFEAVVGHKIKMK

Take `O=C(O)c1ccc(NS(=O)(=O)c2cnc(-c3ccc(F)cc3)s2)c2c1OCCO2` [Example 116]: the pIC50 was 4.00 to 6.00.

On to `COc1cc(C(=O)O)ccc1NS(=O)(=O)c1csc(-c2ccc(C(=O)O)cc2)n1` [Example 117], for which the negative logarithm of the IC50 (pIC50) was 4.00 to 6.00.

Take `O=S(=O)(O)c1ccc(NS(=O)(=O)c2cnc(-c3ccc(F)cc3)s2)cc1` [Example 118]: the pIC50 was < 4.00.

On to `COc1cc(S(N)(=O)=O)ccc1NS(=O)(=O)c1cnc(-c2ccc(F)cc2)s1` [Example 119], for which the negative-log IC50 (pIC50) is 4.00 to 6.00.

With `COc1cc(C(N)=O)ccc1NS(=O)(=O)c1cnc(-c2ccc(F)cc2)s1` [Example 120], the negative logarithm of the IC50 (pIC50) was 4.00 to 6.00.

`CNS(=O)(=O)c1cc(OC)c(NS(=O)(=O)c2cnc(-c3ccc(F)cc3)s2)cc1C` [Example 121]: the negative logarithm of the IC50 (pIC50) is 4.00 to 6.00.

For `COc1cc(OC(F)F)ccc1NS(=O)(=O)c1cnc(-c2ccc(F)cc2)s1` [Example 122], the pIC50 was 4.00 to 6.00.

For the molecule `COc1cc(C#N)ccc1NS(=O)(=O)c1cnc(-c2ccc(F)cc2)s1` [Example 123], the pIC50 was 4.00 to 6.00.

Consider `COc1cc(C(=O)O)ccc1NS(=O)(=O)c1csc(-c2cccc(C)c2)n1` [Example 124], for which the negative logarithm of the IC50 (pIC50) was 6.00 to 6.30.

In the case of `COc1cc(C(=O)O)ccc1NS(=O)(=O)c1csc(-c2ccccc2C)n1` [Example 125], the pIC50 was 6.00 to 6.30.

`COc1cc(C(=O)O)ccc1NS(=O)(=O)c1csc(-c2cccc(C(F)(F)F)c2)n1` [Example 126]: the negative logarithm of the IC50 (pIC50) is 6.00 to 6.30.

Regarding `COc1cc(C(=O)O)ccc1NS(=O)(=O)c1csc(-c2ccccc2C(F)(F)F)n1` [Example 127], the negative logarithm of the IC50 (pIC50) was 6.00 to 6.30.

For the molecule `COc1cc(C(=O)O)ccc1NS(=O)(=O)c1csc(-c2ccc(O)cc2)n1` [Example 128], the negative logarithm of the IC50 (pIC50) was 6.30 to 7.00.

Turning to `COc1cc(C(=O)O)ccc1NS(=O)(=O)c1csc(-c2cccc(C#N)c2)n1` [Example 129], the pIC50 is 4.00 to 6.00.

In the case of `COc1cc(C(=O)O)ccc1NS(=O)(=O)c1csc(-c2ccc3ccccc3c2)n1` [Example 130], the pIC50 is 6.00 to 6.30.

As for `CCOC(=O)c1cc2c(c(OC)c1)N(S(=O)(=O)c1csc(-c3ccc(F)cc3)n1)CCC2` [Example 131], the pIC50 is 4.00 to 6.00.

Turning to `COc1cc(C(=O)O)cc2c1N(S(=O)(=O)c1cnc(-c3ccc(F)cc3)s1)CCC2` [Example 132], the negative logarithm of the IC50 (pIC50) is 4.00 to 6.00.

As to `O=C(O)c1ccc2c(c1)CCCCN2S(=O)(=O)c1cnc(-c2ccc(F)cc2)s1` [Example 133], the negative-log IC50 (pIC50) was 4.00 to 6.00.

For `COc1cc(C(=O)O)ccc1NS(=O)(=O)c1ccc(Oc2ccccc2OC)cc1` [Example 134], the pIC50 was 6.00 to 6.30.

In the case of `COc1cc(-c2nnn[nH]2)ccc1NS(=O)(=O)c1cnc(-c2ccc(F)cc2)s1` [Example 135], the pIC50 is 4.00 to 6.00.

Take `COc1cc(C(=O)O)ccc1NS(=O)(=O)c1csc2ccccc12` [Example 136]: the negative-log IC50 (pIC50) is 6.00 to 6.30.

As for `COc1cc(C(=O)O)ccc1NS(=O)(=O)c1c[nH]c2ccccc12` [Example 137], the pIC50 is 4.00 to 6.00.

For the molecule `COc1cc(C(=O)O)ccc1NS(=O)(=O)c1coc2ccccc12` [Example 138], the pIC50 was 4.00 to 6.00.

Take `COc1cc(C(=O)O)ccc1NS(=O)(=O)c1ccc2occc2c1` [Example 139]: the pIC50 was 4.00 to 6.00.

As to `COc1cccc(-c2nc(S(=O)(=O)Nc3ccc(C(=O)O)cc3OC)cs2)c1` [Example 140], the pIC50 is 6.00 to 6.30.

On to `COc1cc(C(=O)O)ccc1NS(=O)(=O)c1csc(-c2ccccc2OC)n1` [Example 141], for which the pIC50 was 6.00 to 6.30.

For `COc1cc(C(=O)O)ccc1NS(=O)(=O)c1csc(-c2ccccc2O)n1` [Example 142], the negative logarithm of the IC50 (pIC50) was 6.00 to 6.30.

For `COc1cc(C(=O)O)ccc1NS(=O)(=O)c1csc(-c2cccnc2)n1` [Example 143], the pIC50 is 4.00 to 6.00.

With `COc1cc(C(=O)O)ccc1NS(=O)(=O)c1ccc(-c2ccccc2)cc1` [Example 144], the negative logarithm of the IC50 (pIC50) was 6.30 to 7.00.

Regarding `COc1cc(C(=O)O)ccc1NS(=O)(=O)c1cccc(-c2ccccc2)c1` [Example 145], the pIC50 is 4.00 to 6.00.

For the molecule `COc1cc(C(=O)O)ccc1NS(=O)(=O)c1csc(-c2cccc(O)c2)n1` [Example 146], the pIC50 is 6.30 to 7.00.

As to `COc1cc(C(=O)O)ccc1NS(=O)(=O)c1csc(-c2ccccn2)n1` [Example 147], the pIC50 was 4.00 to 6.00.

With `COc1cc(C(=O)O)ccc1NS(=O)(=O)c1csc(-c2ccc(C#N)cc2)n1` [Example 148], the pIC50 is 4.00 to 6.00.

Consider `COc1cc(C(=O)O)ccc1NS(=O)(=O)c1ccc(-c2ccccc2)s1` [Example 149], for which the negative-log IC50 (pIC50) is 6.00 to 6.30.

On to `COc1cc(C(=O)O)ccc1NS(=O)(=O)c1csc(C#Cc2ccccc2)n1` [Example 150], for which the pIC50 is 6.30 to 7.00.

On to `COc1cc(C(=O)O)ccc1NS(=O)(=O)c1csc(-c2cccc3ccccc23)n1` [Example 151], for which the negative logarithm of the IC50 (pIC50) is 6.00 to 6.30.

Regarding `COc1cc(C(=O)O)ccc1NS(=O)(=O)c1csc(-c2c(C)ccc3ccccc23)n1` [Example 152], the negative-log IC50 (pIC50) was 6.30 to 7.00.

Consider `COc1cc(C(=O)O)ccc1NS(=O)(=O)c1csc(-c2c(F)ccc3ccccc23)n1` [Example 153], for which the pIC50 was 6.30 to 7.00.

With `COc1cc(C(=O)O)ccc1NS(=O)(=O)c1csc(-c2ccc(OC)c3ccccc23)n1` [Example 154], the pIC50 is 6.00 to 6.30.

For the molecule `COc1cc(C(=O)O)ccc1NS(=O)(=O)c1csc(-c2cccc3ccncc23)n1` [Example 155], the pIC50 is 4.00 to 6.00.

With `COc1cc(C(=O)O)ccc1NS(=O)(=O)c1csc(-c2cccc(C)c2C)n1` [Example 156], the negative-log IC50 (pIC50) was 6.30 to 7.00.

For `COc1cc(C(=O)O)ccc1NS(=O)(=O)c1csc(-c2cccc3c2CCCC3)n1` [Example 157], the pIC50 was 6.30 to 7.00.

In the case of `COc1cc(C(=O)O)ccc1NS(=O)(=O)c1cnc(-c2ccccc2)s1` [Example 158], the pIC50 was 6.30 to 7.00.

With `COc1cc(C(=O)O)ccc1NS(=O)(=O)c1csc(-c2ccccc2C#N)n1` [Example 159], the pIC50 was 4.00 to 6.00.

Consider `O=C(O)c1ccc(NS(=O)(=O)c2cnc(-c3ccccc3)s2)c(O)c1` [Example 160], for which the pIC50 is 6.30 to 7.00.

Turning to `COc1cc(C(=O)O)ccc1NS(=O)(=O)c1cnc(-c2ccc(F)cc2)s1` [Example 161], the pIC50 is 6.30 to 7.00.

`COc1cc(C(=O)O)ccc1NS(=O)(=O)c1ccc2ccc(S(=O)(=O)Nc3ccc(C(=O)O)cc3OC)cc2c1` [Example 162]: the pIC50 was 6.30 to 7.00.

In the case of `COc1cc(C(=O)O)ccc1NS(=O)(=O)c1csc(Nc2ccccc2)n1` [Example 163], the pIC50 was 4.00 to 6.00.

For `COc1cc(C(=O)O)ccc1NS(=O)(=O)c1csc(NCc2ccccc2)n1` [Example 164], the pIC50 was 4.00 to 6.00.

As for `COc1cc(C(=O)O)ccc1NS(=O)(=O)c1csc(NCCc2ccccc2)n1` [Example 165], the pIC50 was 4.00 to 6.00.

Consider `COc1cc(C(=O)O)ccc1NS(=O)(=O)c1csc(N2CCOCC2)n1` [Example 166], for which the pIC50 was 4.00 to 6.00.

Take `COc1cc(C(=O)O)ccc1NS(=O)(=O)c1csc(/C=C/c2ccccc2)n1` [Example 167]: the pIC50 was 6.30 to 7.00.

Consider `COc1cc(C(=O)O)ccc1NS(=O)(=O)c1ccc(C#Cc2ccccc2)s1` [Example 168], for which the negative-log IC50 (pIC50) was 6.30 to 7.00.

As to `COc1cc(C(=O)O)ccc1NS(=O)(=O)c1cnc(C#Cc2ccccc2)s1` [Example 169], the pIC50 was 6.30 to 7.00.

For `O=C(O)c1ccc(NS(=O)(=O)c2cccc(S(=O)(=O)Nc3ccc(C(=O)O)cc3O)c2)c(O)c1` [Example 170], the pIC50 was 6.30 to 7.00.

Regarding `O=C(O)c1ccc(NS(=O)(=O)c2ccc3ccc(S(=O)(=O)Nc4ccc(C(=O)O)cc4O)cc3c2)c(O)c1` [Example 171], the pIC50 was > 7.00.

On to `O=C(O)c1ccc(NS(=O)(=O)c2ccc(Oc3ccc(S(=O)(=O)Nc4ccc(C(=O)O)cc4O)cc3)cc2)c(O)c1` [Example 172], for which the pIC50 is 6.30 to 7.00.

As for `O=C(O)c1ccc(NS(=O)(=O)c2cnc(-c3ccc(F)cc3)s2)c(C(F)F)c1` [Example 173], the pIC50 was 4.00 to 6.00.

On to `COc1cc(C(=O)O)ccc1NS(=O)(=O)c1ccc(-c2ccc(F)cc2)s1` [Example 174], for which the pIC50 was > 7.00.

`COc1cc(C(=O)O)ccc1NS(=O)(=O)c1ccc(-c2ccc(C)cc2)s1` [Example 175]: the pIC50 is 6.30 to 7.00.
